Experimental data: patent US20130303619A1, “Antibacterial Compositions” (priority 2009, published 2013)
“Also recorded” adds a separate entry of the source.

Legend:
[1] = test system: LL-37 expression by OBA9 cells; experiment: LL-37 expression by OBA9 cells with Sepharose-coupled benzoic acid isomers; assay type: cell-based, human; details: isomer coupled to NBS-activated Sepharose gel
Description: In order to investigate the structure-function relationship underlying EGCG-mediated induction of LL-37 from human gingival epithelial cell line OBA9, different isomers of benzoic acids are examined for their effects on the LL-37 expression by OBA9 cells. Each isomer of benzoic acids is coupled to NBS-activated Sepharose gel (Pierce) using a cross-linker, 1-Ethyl-3-[3-dimethylaminopropyl]carbodiimide (EDC, Pierce). The isomers of benzoic acids include 1) 2,6-di-hydroxy benzoic acid, 2) 2,3,4-tri-hydroxy benzoic acids, 3) 3,4,5-tri-hydroxy benzoic acids, and 4) 2,4,6-tri-hydroxy benzoic acids.

[2] = molecular target: T1, DEAD box polypeptide 5 (DDX5) (Homo sapiens, UniProt P17844); experiment: Pull down assay with benzoic acid-coupled beads and OBA9 cell lysate, Mass-Spec; assay type: binding; details: beads incubated with OBA9 cell lysate
T1 construct: endogenous in cells; host or cells: OBA9 human gingival epithelial cell line (lysate)
T1 sequence (P17844 whole entry): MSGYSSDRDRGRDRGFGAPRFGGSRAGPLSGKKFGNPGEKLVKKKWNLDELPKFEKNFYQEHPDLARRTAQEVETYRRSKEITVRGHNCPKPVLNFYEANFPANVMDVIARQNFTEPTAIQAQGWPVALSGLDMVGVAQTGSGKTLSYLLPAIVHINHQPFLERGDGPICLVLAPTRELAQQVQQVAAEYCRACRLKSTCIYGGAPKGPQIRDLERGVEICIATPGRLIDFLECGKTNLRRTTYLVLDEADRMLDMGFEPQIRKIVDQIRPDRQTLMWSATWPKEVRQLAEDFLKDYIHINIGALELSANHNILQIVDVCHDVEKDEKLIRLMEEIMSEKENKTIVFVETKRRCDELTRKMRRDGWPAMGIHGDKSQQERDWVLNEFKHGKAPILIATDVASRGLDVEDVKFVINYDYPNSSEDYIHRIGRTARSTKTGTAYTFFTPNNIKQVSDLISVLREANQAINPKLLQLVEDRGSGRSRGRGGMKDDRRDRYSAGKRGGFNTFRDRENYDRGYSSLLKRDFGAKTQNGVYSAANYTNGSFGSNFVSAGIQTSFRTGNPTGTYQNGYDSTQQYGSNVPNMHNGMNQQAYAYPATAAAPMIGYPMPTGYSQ
Description: FIG. 1 is a schematic showing a pull down assay to determine counter ligand of benzoic acids expressed on OBA9 cells is DDX5. OBA9 cells were harvested and dissolved in lysis buffer. The resulting cell lysis solution was reacted with Sephadex beads conjugated with 2,6-dihydroxy benzoic acid (DHBC) and 2,3,4-trihydroxy benzoic acid (THBC). The cellular components pulled down with beads were separated in SDS-PAGE gel, and stained with Coomassie blue. The 35 kD and 70 kD bands specific to 2,3,4-THBC were subjected to Mass-Spec analysis at Tufts University Core Facility. The procedure for pull down assay includes preparation of cell lysate from gingival epithelial cell (OBA9) culture; preparation of beads conjugated with tri-hydroxy benzoic acid (THBC); incubation of beads with OBA9 cell lysate; remove unbound protein by washing beads; the proteins bound to beads are separated in SDS-PAGE; distinct bands to 2,3,4-THBC are sent for Mass-Spec service; and identification of molecular finger print of 2,3,4-THBC binding ligand.
FIG. 2 is a schematic including the molecular finger print found in 70 kD band specific to 2,3,4-THDC that is DDX5 (SEQ ID NO: 1). The 35 kD, 70 kD and 90 kD bands specific to 2,3,4-THBC were subjected to Mass-Spec analysis service. […] Result data sheet that identified DDX5 in 70 kD band is shown.
In order to confirm if LL-37 induction in epithelial cells by EGCG is dependent on the activation of cell ligand (either cytoplasm or cell surface), or previously known anti-oxidant effects by EGCG, 3,4,5-tri-hydroxy benzoic acid-coupled beads and control 2,6-di-hydroxy benzoic acid-coupled beads are utilized to pull down the possible ligand for 3,4,5-tri-hydroxy benzoic acid. After incubation of each bead with cell lysate of OBA9, the beads are washed, and the cellular materials that bind to the beads are separated in SDS-PAGE. At least 3 bands (MW 35 kD, 70 kD and 90 kD), which are distinct to 3,4,5-tri-hydroxy benzoic acid, are detected, as compared to the other beads (control, 2,6-di-hydroxy benzoic acid and control plain beads). […]

LL-37 from OBA9 cells = experiment: In vitro induction of LL-37 protein (ELISA) from OBA9 cells; assay type: cell-based, human; details: 20 ug/ml
Method: (§1) Using ELISA systems to detect LL-37 (Forsyth in-house) and hBD2 (Peprotech), 33 natural compounds (20 ug/ml) are examined for their ability to induce LL-37 and hBD2 from OBA9 cells. Although the sensitivity of the hBD2 ELISA is higher than that of LL-37 ELISA (10 pg/ml vs 1 ng/ml, respectively), the induction of LL-37 is more prominent than hBD2 (FIG. 2 A&B, LL-37; C&D, hBD2). […] Bactericidal effects of LL-37 and hBD2 are, in general, potent.
The trihydroxybenzoate derivatives of the Invention and rosemarinic acid, courmarin, catechin gallate, epicatechin gallate, epigallocatechin, and tannic acid are tested to induce LL-37 from OBA9 cells in the absence of EGCG.

[3] = test system: Actinobacillus actinomycetemcomitans Y4 (Aa Y4); experiment: Bactericidal effect of culture supernatant of treated OBA9 cells; assay type: cell-based; details: 20 ug/ml; compared with non-treated, catechin- or 2,4-dihydroxy benzoic acid-treated OBA9 supernatant
Method: The culture supernatant isolate from OBA9 is treated with 1) EGCG, 2) catechin, 3) 2,4-dihydroxy benzoic acid, and 4) 3,4,5-tri-hydroxy benzoic acid (20 ug/ml, respectively) and examined for their bactericidal effects on Actinobacillus actinomycetemcomitans Y4 (Aa Y4).

[4] = test system: LL-37 protein in cheek epithelial cells; experiment: LL-37 protein expression by cheek epithelium (Western blot); assay type: in vivo, human; details: isolated cheek cells, anti-LL-37 monoclonal antibody
Description: (§2) Cheek epithelium is utilized for monitoring LL-37 mRNA and protein expression to determine if Trihydroxybenzoate Derivatives of the Invention can induce LL-37 in vivo. […] The isolated cheek cells are also subjected to Western blot analysis for protein expression of LL-37 by cheek epithelium using anti-LL-37 monoclonal antibody. The expression of both the proform (18 kD, also termed as hCAP18) and secreted form (4.5 kD) of LL-37 (12) in cheek epithelial cells is induced by Trihydroxybenzoate Derivatives of the Invention (e.g., EGCG (95% SIGMA), or by EGCG (90% Teavigo)).

[5] = test system: LL-37 mRNA expression in OBA9 cells; experiment: LL-37 mRNA expression in human gingival epithelial cells; assay type: cell-based; details: 4-hour exposure, 0.1, 1.0 and 10 ug/ml
Method: (§3) Both LL-37 and hBD2 mRNA expression in OBA9 cells are induced after a 4-hour exposure to green tea polyphenol extract, Teaflan 90S (EGCG 50%, ECG 13%), and purified EGCG (95% pure, SIGMA) at concentrations of 0.1, 1.0 and 10 ug/ml. EGCG increases the production of LL-37 and hBD2 at the mRNA level in the human gingival epithelial cell line OBA9 (FIG. 1) as well as the human lung carcinoma cell line A549.

[6] = test system: hBD2 mRNA expression in OBA9 cells; experiment: hBD2 mRNA expression in human gingival epithelial cells; assay type: cell-based; details: 4-hour exposure, 0.1, 1.0 and 10 ug/ml
Method: as §3

LL-37 mRNA in A549 = experiment: LL-37 mRNA level in lung carcinoma cell line; assay type: cell-based; details: human lung carcinoma cell line A549
Method: as §3

hBD2 mRNA in A549 = experiment: hBD2 mRNA level in lung carcinoma cell line; assay type: cell-based; details: human lung carcinoma cell line A549
Method: as §3

[7] = test system: LL-37 mRNA in cheek epithelial cells; experiment: In vivo LL-37 mRNA expression by human cheek epithelial cells after mouthwash (RT-PCR); details: mouthwash with EGCG (40 ug/ml), after only 5 minutes from application
Description: as §2

LL37 mRNA in OBA9 cells = experiment: EGCG-induced LL37 mRNA expression in OBA9 cells with or without DDX5 RNAi (RT-PCR); assay type: cell-based, human; details: EGCG 40 ng/ml, 30 minutes
Method: (§4) Our hypothesis that THBC induction of LL-37 expression is mediated via binding to DDX5 is further supported by the finding that inhibition of DDX5 expression in gingival epithelial cells (OBA9) reduces EGCG-mediated LL-37 expression. Confluent OBA9 cells in a tissue culture plate are treated with or without DDX5-specific siRNA sequences (three different siRNA sequences specific to DDX5 are examined). After 24 h and 48 h incubation, total RNA and proteins are extracted, respectively, from the OBA9 cells. […] The OBA9 cells pre-incubated with non-target siRNA and DDX5-siRNA for 48 hours are restimulated with EGCG (40 ng/ml) for 30 min, and mRNA expression for LL-37 and […] was detected by RT-PCR. […] Effects of DDX5-siRNA treatment on EGCG-mediated LL-37 protein expression by OBA9 cells is measured by ELISA.
After treatment of OBA9 cells with control non-target siRNA or DDX5-siRNA (#A) for 48 hours, the OBA9 cells were incubated with or without EGCG (40 ng/ml) for 30 minutes. The total RNA isolated from the OBA9 cells was subjected to RT-PCR for LL37 mRNA as well as internal control β-actin mRNA.

[8] = test system: LL37 protein in OBA9 cells; experiment: EGCG-induced LL37 protein expression in OBA9 cells with or without DDX5 RNAi (ELISA); assay type: cell-based, human; details: OBA9 culture supernatant, EGCG 40 ng/ml, 30 min to 24 hours
Method: as §4
The OBA9 cells which were pre-treated with control non-target siRNA or DDX5-siRNA (#A) for 48 hours, as shown in 1-B, were incubated with EGCG (40 ng/ml) for different periods from 30 min to 24 hours. The supernatant harvested from the OBA9 cell culture was subjected to ELISA for LL37 protein.

LL-37 in OBA9 cells = experiment: EGCG-induced LL-37 (ELISA) in OBA9 cells over expressing DDX5; assay type: cell-based, human; details: EGCG 40 ng/ml, 2 hours
Method: The OBA9 cells transfected with either DDX5 over-expression vector (pK0203) or control empty vector (pKO108) were cultured for 48 h. Thereafter, the OBA9 cells were incubated with or without EGCG (40 ng/ml) for 2 hours, and the culture supernatant was subjected to ELISA for the detection of LL-37.

hBD2 from OBA9 cells = experiment: In vitro induction of hBD2 protein (ELISA) from OBA9 cells; assay type: cell-based, human; details: 20 ug/ml
Method: as §1

O=C(O)c1ccc(O)c(O)c1O [2,3,4-tri-hydroxy benzoic acids, 2,3,4-trihydroxybenzoic acid]
induction of LL-37 expression by OBA9 cells [1]: show the induction of LL-37 expression | binding to DDX5 (pull down, 70 kD band) [2]: only found in 2,3,4-THDC beads

O=C(O)c1c(O)cc(O)cc1O [2,4,6-tri-hydroxy benzoic acids, reference compound]
induction of LL-37 expression by OBA9 cells [1]: not

O=C(O)c1c(O)cccc1O [2,6-di-hydroxy benzoic acids, 2,6-dihydroxy benzoic acid, reference compound]
induction of LL-37 expression by OBA9 cells [1]: not

O=C(O)c1cc(O)c(O)c(O)c1 [3,4,5-tri-hydroxy benzoic acid, 3,4,5-trihydroxybenzoic acid]
induction of LL-37 (ELISA) (LL-37 from OBA9 cells): more potent than 3,4,-dihydroxy benzoate | bactericidal effects of culture supernatant of treated OBA9 cells on Aa Y4 [3]: more bactericidal effects | induction of LL-37 expression by OBA9 cells [1]: show the induction of LL-37 expression | binding to DDX5 (pull down, 70 kD band) [2]: binds to DDX5 expressed in gingival epithelial cells with high affinity

O=C(O[C@@H]1Cc2c(O)cc(O)cc2O[C@@H]1c1cc(O)c(O)c(O)c1)c1cc(O)c(O)c(O)c1 [EGCG (90% Teavigo)]
expression of proform (18 kD) and secreted form (4.5 kD) of LL-37 in cheek epithelial cells (Western blot) [4]: induced

O=C(O[C@@H]1Cc2c(O)cc(O)cc2O[C@@H]1c1cc(O)c(O)c(O)c1)c1cc(O)c(O)c(O)c1 [EGCG, epigallocatechin gallate]
LL-37 mRNA expression [5]: induced | hBD2 mRNA expression [6]: induced | production of LL-37 at the mRNA level (LL-37 mRNA in A549): increases | production of hBD2 at the mRNA level (hBD2 mRNA in A549): increases | bactericidal effects of culture supernatant of treated OBA9 cells on Aa Y4 [3]: more bactericidal effects | LL-37 mRNA expression by cheek epithelial cells (RT-PCR) [7]: up-regulated | expression of proform (18 kD) and secreted form (4.5 kD) of LL-37 in cheek epithelial cells (Western blot) [4]: induced | binding to DDX5 (pull down, 70 kD band) [2]: binds to DDX5 | LL37 mRNA expression induced by EGCG (LL37 mRNA in OBA9 cells): induced | LL37 protein expression after EGCG stimulation (ELISA) [8]: detected as early as 30 min until 24 hours; also recorded: increased in a time dependent manner | LL-37 expression induced by EGCG (ELISA) (LL-37 in OBA9 cells; OBA9 with no vector, empty vector pK0108 or pK0203): induced the LL-37 expression in all three conditions | LL-37 expression induced by EGCG in OBA9 transfected with DDX5 over-expression vector versus no vector or empty vector (LL-37 in OBA9 cells; P<0.05, Student t test): significantly higher

CCCCCCCCCCCCCC(=O)O[C@@H]1[C@@H](C)[C@@]2(O)[C@@H](C=C(CO)C[C@]3(O)C(=O)C(C)=C[C@@H]23)[C@@H]2C(C)(C)[C@]12OC(C)=O [PMA]
induction of LL-37 (ELISA) (LL-37 from OBA9 cells): induced LL-37 | induction of hBD2 (ELISA) (hBD2 from OBA9 cells): minimal induction activities

O=C(/C=C/c1ccc(O)c(O)c1)O[C@H](Cc1ccc(O)c(O)c1)C(=O)O [Rosemarinic acid]
induction of LL-37 (ELISA) (LL-37 from OBA9 cells): little or no induction

O=c1ccc2ccccc2o1 [courmarin]
induction of LL-37 (ELISA) (LL-37 from OBA9 cells): little or no induction

Poly IC
induction of LL-37 (ELISA) (LL-37 from OBA9 cells): induced LL-37 | induction of hBD2 (ELISA) (hBD2 from OBA9 cells): minimal induction activities
